Data: ChEMBL document CHEMBL4004803, “Syntheses and antibacterial activity of soluble 9-bromo substituted indolizinoquinoline-5,12-dione derivatives” (Eur J Med Chem, 2017)
≈ marks a conversion by molar mass, not a printed value.

Experiments:
Assay type in all cases: functional
[1] = tested on: Staphylococcus aureus; test: Antibacterial activity against methicillin-resistant Staphylococcus aureus 1012029 clinical isolate after 20 to 24 hrs by two-fold microdilution method
[2] = tested on: Staphylococcus aureus; test: Antibacterial activity against methicillin-resistant Staphylococcus aureus 614019 clinical isolate after 20 to 24 hrs by two-fold microdilution method
[3] = tested on: Staphylococcus aureus; test: Antibacterial activity against methicillin-resistant Staphylococcus aureus 214026 clinical isolate after 20 to 24 hrs by two-fold microdilution method
[4] = tested on: Staphylococcus aureus; test: Antibacterial activity against methicillin-resistant Staphylococcus aureus 316038 clinical isolate after 20 to 24 hrs by two-fold microdilution method
[5] = tested on: Staphylococcus aureus; test: Antibacterial activity against methicillin-resistant Staphylococcus aureus 11703 clinical isolate after 20 to 24 hrs by two-fold microdilution method
[6] = tested on: Staphylococcus aureus; test: Antibacterial activity against methicillin-resistant Staphylococcus aureus 829034 clinical isolate after 20 to 24 hrs by two-fold microdilution method
[7] = tested on: Staphylococcus aureus; test: Antibacterial activity against methicillin-resistant Staphylococcus aureus 814039 clinical isolate after 20 to 24 hrs by two-fold microdilution method
[8] = tested on: Staphylococcus aureus; test: Antibacterial activity against methicillin-resistant Staphylococcus aureus 202045 clinical isolate after 20 to 24 hrs by two-fold microdilution method
[9] = tested on: Staphylococcus aureus; test: Antibacterial activity against methicillin-resistant Staphylococcus aureus 519030 clinical isolate after 20 to 24 hrs by two-fold microdilution method
[10] = tested on: Staphylococcus aureus; test: Antibacterial activity against methicillin-resistant Staphylococcus aureus clinical isolate after 20 to 24 hrs by two-fold microdilution method
[11] = tested on: Staphylococcus aureus; test: Antibacterial activity against methicillin-resistant Staphylococcus aureus 122045 clinical isolate after 20 to 24 hrs by two-fold microdilution method
[12] = tested on: Staphylococcus aureus; test: Antibacterial activity against methicillin-resistant Staphylococcus aureus 1019240 clinical isolate after 20 to 24 hrs by two-fold microdilution method
[13] = tested on: Staphylococcus aureus; test: Antibacterial activity against methicillin-resistant Staphylococcus aureus 109016 clinical isolate after 20 to 24 hrs by two-fold microdilution method
[14] = tested on: Staphylococcus aureus; test: Antibacterial activity against methicillin-resistant Staphylococcus aureus 1012039 clinical isolate after 20 to 24 hrs by two-fold microdilution method
[15] = tested on: Staphylococcus aureus; test: Antibacterial activity against methicillin-resistant Staphylococcus aureus 1024010 clinical isolate after 20 to 24 hrs by two-fold microdilution method
[16] = tested on: Staphylococcus aureus; test: Antibacterial activity against methicillin-resistant Staphylococcus aureus 518036 clinical isolate after 20 to 24 hrs by two-fold microdilution method
[17] = tested on: Staphylococcus aureus; test: Antibacterial activity against methicillin-resistant Staphylococcus aureus 908046 clinical isolate after 20 to 24 hrs by two-fold microdilution method
[18] = tested on: Staphylococcus aureus; test: Antibacterial activity against methicillin-resistant Staphylococcus aureus 1026021 clinical isolate after 20 to 24 hrs by two-fold microdilution method
[19] = tested on: Staphylococcus aureus; test: Antibacterial activity against methicillin-resistant Staphylococcus aureus 120827 clinical isolate after 20 to 24 hrs by two-fold microdilution method
[20] = tested on: Staphylococcus aureus; test: Antibacterial activity against methicillin-resistant Staphylococcus aureus 530231 clinical isolate after 20 to 24 hrs by two-fold microdilution method
[21] = tested on: Staphylococcus aureus; test: Antibacterial activity against methicillin-resistant Staphylococcus aureus 1216052 clinical isolate after 20 to 24 hrs by two-fold microdilution method
[22] = tested on: Staphylococcus aureus; test: Antibacterial activity against methicillin-resistant Staphylococcus aureus 121969 clinical isolate after 20 to 24 hrs by two-fold microdilution method
[23] = tested on: Staphylococcus aureus; test: Antibacterial activity against methicillin-resistant Staphylococcus aureus 224001 clinical isolate after 20 to 24 hrs by two-fold microdilution method
[24] = tested on: Staphylococcus aureus; test: Antibacterial activity against methicillin-resistant Staphylococcus aureus 12308 clinical isolate after 20 to 24 hrs by two-fold microdilution method
[25] = tested on: Staphylococcus aureus; test: Antibacterial activity against methicillin-resistant Staphylococcus aureus 110834 clinical isolate after 20 to 24 hrs by two-fold microdilution method
[26] = tested on: Staphylococcus aureus; test: Antibacterial activity against methicillin-resistant Staphylococcus aureus 1214023 clinical isolate after 20 to 24 hrs by two-fold microdilution method
[27] = tested on: Staphylococcus aureus; test: Antibacterial activity against methicillin-resistant Staphylococcus aureus GLH15 clinical isolate after 20 to 24 hrs by two-fold microdilution method
[28] = tested on: Staphylococcus aureus; test: Antibacterial activity against methicillin-resistant Staphylococcus aureus 110414 clinical isolate after 20 to 24 hrs by two-fold microdilution method
[29] = tested on: Staphylococcus aureus; test: Antibacterial activity against methicillin-resistant Staphylococcus aureus 3250299 clinical isolate after 20 to 24 hrs by two-fold microdilution method
[30] = tested on: Staphylococcus aureus; test: Antibacterial activity against methicillin-resistant Staphylococcus aureus GLH14 clinical isolate after 20 to 24 hrs by two-fold microdilution method
[31] = tested on: Staphylococcus aureus; test: Antibacterial activity against methicillin-resistant Staphylococcus aureus 215073 clinical isolate after 20 to 24 hrs by two-fold microdilution method
[32] = tested on: Staphylococcus aureus; test: Antibacterial activity against methicillin-resistant Staphylococcus aureus 304243 clinical isolate after 20 to 24 hrs by two-fold microdilution method
[33] = tested on: Staphylococcus aureus; test: Antibacterial activity against methicillin-resistant Staphylococcus aureus 112430 clinical isolate after 20 to 24 hrs by two-fold microdilution method
[34] = tested on: Staphylococcus aureus; test: Antibacterial activity against methicillin-resistant Staphylococcus aureus 822030 clinical isolate after 20 to 24 hrs by two-fold microdilution method
[35] = tested on: Staphylococcus aureus; test: Antibacterial activity against methicillin-resistant Staphylococcus aureus 221022 clinical isolate after 20 to 24 hrs by two-fold microdilution method
[36] = tested on: Staphylococcus aureus; test: Antibacterial activity against methicillin-resistant Staphylococcus aureus 1023043 clinical isolate after 20 to 24 hrs by two-fold microdilution method
[37] = tested on: Staphylococcus aureus; test: Antibacterial activity against methicillin-resistant Staphylococcus aureus 221014 clinical isolate after 20 to 24 hrs by two-fold microdilution method
[38] = tested on: Staphylococcus aureus; test: Antibacterial activity against methicillin-resistant Staphylococcus aureus 216054 clinical isolate after 20 to 24 hrs by two-fold microdilution method
[39] = tested on: Staphylococcus aureus; test: Antibacterial activity against methicillin-resistant Staphylococcus aureus 20534 clinical isolate after 20 to 24 hrs by two-fold microdilution method
[40] = tested on: Staphylococcus aureus; test: Antibacterial activity against methicillin-resistant Staphylococcus aureus 110328-1 clinical isolate after 20 to 24 hrs by two-fold microdilution method
[41] = tested on: Staphylococcus aureus; test: Antibacterial activity against methicillin-resistant Staphylococcus aureus 111625 clinical isolate after 20 to 24 hrs by two-fold microdilution method
[42] = tested on: Staphylococcus aureus; test: Antibacterial activity against methicillin-resistant Staphylococcus aureus 919205 clinical isolate after 20 to 24 hrs by two-fold microdilution method
[43] = tested on: Staphylococcus aureus; test: Antibacterial activity against methicillin-resistant Staphylococcus aureus 519028 clinical isolate after 20 to 24 hrs by two-fold microdilution method
[44] = tested on: Staphylococcus aureus; test: Antibacterial activity against methicillin-resistant Staphylococcus aureus 102849 clinical isolate after 20 to 24 hrs by two-fold microdilution method
[45] = tested on: Staphylococcus aureus; test: Antibacterial activity against methicillin-resistant Staphylococcus aureus 414244 clinical isolate after 20 to 24 hrs by two-fold microdilution method
[46] = tested on: Staphylococcus aureus; test: Antibacterial activity against methicillin-resistant Staphylococcus aureus 10844 clinical isolate after 20 to 24 hrs by two-fold microdilution method
[47] = tested on: Staphylococcus aureus; test: Antibacterial activity against methicillin-resistant Staphylococcus aureus 1113041 clinical isolate after 20 to 24 hrs by two-fold microdilution method

SMILES: O=C1c2cccnc2C(=O)c2c1c(C(=O)OCCCCCCN1CCOCC1)c1ccc(Br)cn21
- MIC [1]: ≤ 7.8 ng/mL
- MIC [2]: ≤ 7.8 ng/mL
- MIC [3]: ≤ 7.8 ng/mL
- MIC [4]: ≤ 7.8 ng/mL
- MIC [5]: ≤ 7.8 ng/mL
- MIC [6]: ≤ 7.8 ng/mL
- MIC [7]: ≤ 7.8 ng/mL
- MIC [8]: ≤ 7.8 ng/mL
- MIC [9]: ≤ 7.8 ng/mL
- MIC50 [10]: ≤ 7.8 ng/mL
- MIC90 [10]: ≤ 7.8 ng/mL
- MIC [11]: ≤ 7.8 ng/mL
- MIC [12]: ≤ 7.8 ng/mL
- MIC [13]: ≤ 7.8 ng/mL
- MIC [14]: ≤ 7.8 ng/mL
- MIC [15]: ≤ 7.8 ng/mL
- MIC [16]: ≤ 7.8 ng/mL
- MIC [17]: ≤ 7.8 ng/mL
- MIC [18]: ≤ 7.8 ng/mL
- MIC [19]: ≤ 7.8 ng/mL
- MIC [20]: ≤ 7.8 ng/mL
- MIC [21]: 16000 ng/mL (≈ 29.6 µM)
- MIC [22]: ≤ 7.8 ng/mL
- MIC [23]: ≤ 7.8 ng/mL
- MIC [24]: ≤ 7.8 ng/mL
- MIC [25]: ≤ 7.8 ng/mL
- MIC [26]: ≤ 7.8 ng/mL
- MIC [27]: ≤ 7.8 ng/mL
- MIC [28]: ≤ 7.8 ng/mL
- MIC [29]: ≤ 7.8 ng/mL
- MIC [30]: ≤ 7.8 ng/mL
- MIC [31]: ≤ 7.8 ng/mL
- MIC [32]: 31 ng/mL (≈ 0.0574 µM)
- MIC [33]: ≤ 7.8 ng/mL
- MIC [34]: ≤ 7.8 ng/mL
- MIC [35]: ≤ 7.8 ng/mL
- MIC [36]: ≤ 7.8 ng/mL
- MIC [37]: ≤ 7.8 ng/mL
- MIC [38]: ≤ 7.8 ng/mL
- MIC [39]: ≤ 7.8 ng/mL
- MIC [40]: ≤ 7.8 ng/mL
- MIC [41]: ≤ 7.8 ng/mL
- MIC [42]: ≤ 7.8 ng/mL
- MIC [43]: ≤ 7.8 ng/mL
- MIC [44]: ≤ 7.8 ng/mL
- MIC [45]: ≤ 7.8 ng/mL
- MIC [46]: ≤ 7.8 ng/mL
- MIC [47]: ≤ 7.8 ng/mL
